Patent publication US20090118310A1, “Activated Cdc42-associated kinase (ACK) as a therapeutic target for Ras-induced cancer” (UNIVERSITY OF MEDICINE AND DENTISTRY OF NEW JERSEY, priority 2005, published 2009)
Entries after “also recorded” stand apart in the source; their conditions may differ.

Assays:
[1] = biological target: T1, ACK-1 (Mus musculus, UniProt O54967); test: ACK-1 autophosphorylation in v-Ha-Ras-transformed cells (immunoprecipitation, anti-phosphotyrosine Western blot); format: cell-based; conditions: 25 μmol/L, 48 hours, FIG. 5A
T1 construct: endogenous in cells; host or cells: v-Ha-Ras-transformed NIH 3T3 cells (and parental NIH 3T3 in the siRNA experiment)
Protocol: For immunoprecipitation, cells (2×10^6 per sample) were lysed in a buffer containing 1% Triton X-100, 20 mmol/L HEPES (pH 7.4), 150 mmol/L NaCl, 10% glycerol, 1.5 mmol/L MgCl2, 1 mmol/L EGTA, 10 mmol/L sodium pyrophosphate, 0.2 mmol/L sodium orthovanadate, 50 mmol/L NaF, 0.5 mg/mL phenylmethylsulfonyl fluoride, and 0.5 μg/mL aprotinin. Each lysate was incubated with ACK-1 antibody (10 μg/sample) for 4 hours at 4° C. Protein A-Sepharose CL-4B (50 μL) was added to the lysate followed by additional incubation for 2 hours at 4° C. Sepharose beads were collected by centrifugation at 1,000×g for 5 minutes (Eppendorf microfuge). The pellets were washed thrice with lysis buffer using the same protocol. Protein bound to Sepharose beads was recovered in Laemmli SDS sample buffer. […]
To study the effects of ACK on cell proliferation, 2×10^4 cells per well were seeded into 24-well plates and cultured under standard cell culture conditions. […] Cell numbers were counted with a hemocytometer. […]
(§1) The effect of PD158780 and PD157432 on the phosphorylation of ACK-1 was investigated. v-Ha-Ras-transformed cells were cultured in DMEM containing 10% FCS. […] For growth inhibition studies, cells were trypsinized and counted every 24 hours. […]

[2] = test system: v-Ha-Ras-transformed NIH 3T3 cells; test: Growth of v-Ha-Ras-transformed cells treated with kinase inhibitors (cell counting); format: cell-based; conditions: kinase inhibitor added after overnight culture; cells counted (every 24 hours or after 48 hours)
Protocol: To study the effects of ACK on cell proliferation, 2×10^4 cells per well were seeded into 24-well plates and cultured under standard cell culture conditions. After overnight culture, individual kinase inhibitors (at indicated concentration) or DMSO (control) were added to the culture. Cells were collected by trypsinization after 48 hours. Cell numbers were counted with a hemocytometer. To study ACK phosphorylation, cells were lysed with a buffer containing 1% Triton X-100, 20 mmol/L HEPES (pH 7.4), 150 mmol/L NaCl, 10% glycerol, 1.5 mmol/L MgCl2, 1 mmol/L EGTA, 10 mmol/L sodium pyrophosphate, 0.2 mmol/L sodium orthovanadate, 50 mmol/L NaF, 0.5 mg/mL phenylmethylsulfonyl fluoride, and 0.5 μg/mL aprotinin. Total protein (˜1 mg) was used for immunoprecipitation of ACK-1.
as §1, with “FCS. Cells were treated with solvent (DMSO), PD 158780 (25 μmol/L), or PD157432 (25 μmol/L) for 48 hours. Cells were incubated under standard cell culture conditions.” for “FCS.”
The effect of ST021169 and ST038325 on v-Ha-Ras-transformed NIH 3T3 cell growth was investigated. […] After 48 hours, the cells were trypsinized and counted with a hemocytometer. […]

[3] = biological target: T2, ACK-1 kinase (GST-ACKD, amino acids 101-441) (Homo sapiens, UniProt Q07912); test: In vitro kinase assay of GST-ACKD with MBP as substrate; format: biochemical; conditions: FIG. 4C dose response, FIG. 4D inhibitors at 200 nmol/L
T2 construct: made in house; host or cells: Escherichia coli BL21 (pGEX-2TH vector)
Protocol: Escherichia coli BL21 cells transformed with pGEX-ACKD were grown at 30° C. to early logarithmic phase and protein expression was induced by adding 0.1 mmol/L isopropyl-L-thio-β-D-galactopyranoside. After 3 hours of incubation, cells were harvested, resuspended in lysis buffer [50 mmol/L Tris (pH 7.5), 0.73 mol/L sucrose, 5 mmol/L MgCl2, 0.5% (v/v) NP40], and disrupted by sonication. Cells were centrifuged at 10,000×g for 30 minutes at 4° C. The supernatant was applied to the glutathione-Sepharose column equilibrated with WED buffer [20 mmol/L Tris (pH 7.5), 2 mmol/L MgCl2, 1 mmol/L DTT] followed by washing with WED buffer. GST-ACKD was eluted with 5 mmol/L glutathione solution in 50 mmol/L Tris (pH 9.6). The eluate was dialyzed in WED buffer overnight and concentrated on a sucrose gradient. The expected size of the fusion protein (GST-ACKD) was confirmed by SDS-PAGE (data not shown), and the protein was used for kinase assays as described below.
The purified GST-ACKD (˜5 μg per reaction) was incubated in kinase reaction buffer [50 mmol/L HEPES-KOH (pH 7.2), 10 mmol/L magnesium acetate, 5 mmol/L DTT] containing 7.5 μg MBP, 100 μmol/L ATP, and 4 μCi [γ-^33P]ATP for 10 minutes at 30° C. Reactions were stopped by addition of 5× Laemmli SDS sample buffer. Proteins were separated by SDS-PAGE, and radioactivity incorporated into the substrate was quantified by using the Kodak Imaging Station 2000R. For kinase inhibition experiments, GST-ACKD was preincubated with individual inhibitors in kinase buffer or kinase buffer alone (control) before the addition of MBP following the same protocol as described above. Experiments were done in triplicate.
Several compounds were screened to examine their potency in inhibiting the kinase activity of ACK in vitro. […]
Different kinase inhibitors were added to the ACK-1 kinase reaction as described above in General Procedures. Phosphorylation of MBP was determined by SDS-PAGE and autoradiography. The level of MBP phosphorylation was determined by scanning MBP bands using Kodak Imaging Station 2000R and plotted as arbitrary units. […]

T2 sequence (Q07912 38-378 H250G): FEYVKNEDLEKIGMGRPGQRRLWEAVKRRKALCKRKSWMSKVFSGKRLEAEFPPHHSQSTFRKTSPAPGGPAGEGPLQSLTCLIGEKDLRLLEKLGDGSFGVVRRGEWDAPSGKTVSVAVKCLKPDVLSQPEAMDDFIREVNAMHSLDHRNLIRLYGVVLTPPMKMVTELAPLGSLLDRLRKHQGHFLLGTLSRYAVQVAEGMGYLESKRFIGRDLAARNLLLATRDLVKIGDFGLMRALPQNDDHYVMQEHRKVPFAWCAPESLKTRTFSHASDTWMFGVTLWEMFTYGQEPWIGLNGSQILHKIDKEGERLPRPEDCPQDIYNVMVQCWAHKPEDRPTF
T1 sequence (O54967 whole entry): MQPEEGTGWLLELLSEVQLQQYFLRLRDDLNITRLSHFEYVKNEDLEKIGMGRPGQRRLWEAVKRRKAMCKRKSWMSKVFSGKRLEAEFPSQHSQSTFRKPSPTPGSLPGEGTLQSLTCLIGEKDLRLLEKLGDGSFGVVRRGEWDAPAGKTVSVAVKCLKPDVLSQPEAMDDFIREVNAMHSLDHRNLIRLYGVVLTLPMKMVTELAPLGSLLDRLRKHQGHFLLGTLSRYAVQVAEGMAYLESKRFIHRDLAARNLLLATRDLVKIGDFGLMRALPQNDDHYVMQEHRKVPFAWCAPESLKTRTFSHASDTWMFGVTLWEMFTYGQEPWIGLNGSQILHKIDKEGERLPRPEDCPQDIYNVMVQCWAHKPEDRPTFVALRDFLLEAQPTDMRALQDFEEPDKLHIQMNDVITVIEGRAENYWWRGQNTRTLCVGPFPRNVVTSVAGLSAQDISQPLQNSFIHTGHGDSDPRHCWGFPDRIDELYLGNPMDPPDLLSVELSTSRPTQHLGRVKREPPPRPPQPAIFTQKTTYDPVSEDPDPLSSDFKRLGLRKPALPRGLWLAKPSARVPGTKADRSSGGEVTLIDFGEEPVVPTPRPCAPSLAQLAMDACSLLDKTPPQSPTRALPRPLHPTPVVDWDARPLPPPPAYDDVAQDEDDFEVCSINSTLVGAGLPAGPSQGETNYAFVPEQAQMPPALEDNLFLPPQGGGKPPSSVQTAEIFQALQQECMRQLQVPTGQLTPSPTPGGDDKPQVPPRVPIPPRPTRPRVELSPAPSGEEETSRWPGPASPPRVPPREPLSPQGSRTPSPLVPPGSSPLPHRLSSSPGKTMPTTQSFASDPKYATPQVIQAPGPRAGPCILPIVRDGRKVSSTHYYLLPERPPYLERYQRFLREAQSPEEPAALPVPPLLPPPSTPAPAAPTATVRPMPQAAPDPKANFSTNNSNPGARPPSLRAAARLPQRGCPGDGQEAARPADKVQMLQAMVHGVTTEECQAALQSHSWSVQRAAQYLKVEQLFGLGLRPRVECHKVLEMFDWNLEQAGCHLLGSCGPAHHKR

Compound: CNc1cc2c(Nc3cccc(Br)c3)ncnc2cn1 [PD158780]
- inhibition of ACK-1 autophosphorylation [1]: inhibited ACK-1 autophosphorylation to a much stronger extent than did PD157432
- inhibition of v-Ha-Ras-transformed NIH 3T3 cell growth [2]: inhibited in a dose-dependent manner
- inhibition of kinase activity of ACK (MBP phosphorylation) [3]: inhibited ACK strongly and in a dose-dependent manner; also recorded: strongest inhibitory activity
